Test system: houseflies (Musca domestica)
Experiment: Knock-down test against housefly
Assay type: in vivo
Conditions: 0.5% oil solution, 0.7 ml sprayed in 70 cm-cubic glass chamber; ten adult houseflies; 15 minutes after application; two repetitions
Method: (Knock-down Test Against Housefly)
A half part of 4-hydroxy-6-methyl-3-(4-methylpentanoyl)-2-pyrone was dissolved in 10 parts of dichloromethane and mixed with 89.5 parts of Isopar M (isoparaffin produced by Exxon Chemical) for preparing 0.5% oil solution. Part(s) means part(s) by weight.
Ten adult houseflies (Musca domestica) including 5 males and 5 females were released in a 70 cm-cubic glass chamber (volume: […]). By a spray-gun, 0.7 ml of the above oil solution was applied at a pressure of 0.9 kg/cm^2 from a small window on the wall of the chamber. After 15 minutes from application, knocked-down houseflies were observed. As a result of two repetitions, the knocked-down ratio was 95%.

## Cc1cc(O)c(C(=O)CCC(C)C)c(=O)o1 [4-Hydroxy-6-methyl-3-(4-methylpentanoyl)-2-pyrone]
  knocked-down ratio: 95%

Source: patent publication US6420569B1, “Process for producing pyrone compounds” (Sumitomo Chemical Company, Limited, priority 2000, dated 2002)
